In patent US9303015B2, “Heteroaryl linked quinolinyl modulators of RORγt” (Janssen Pharmaceutica NV, priority 2012, dated 2016):
Where a name gives a salt, the structure may show the parent alone.

Target: human RORγt LBD (Homo sapiens (Human), UniProt P51449)
Assay: RORγt reporter assay (GAL4-RORγt LBD luciferase, HEK293T cells)
Format: cell-based
Conditions: for inhibition at 6 µM: HEK-293T, read-out: RORγt reporter Assay, % inhibition @ 6 μM, 6 μM, HEK293T cells
Description: A reporter assay was used to test functional activity of RORγt modulatory compounds on transcriptional activation driven by the RORγt LBD. Cells used in the assay were co-transfected with two constructs. The first construct, pBIND-RORγt LBD, contained the wild type human RORγt LBD fused to the DNA binding domain of the GAL4 protein. The second construct, pGL4.31 (Promega Cat no. C935A), contained multiple GAL4 responsive DNA elements upstream of firefly luciferase. […] The mutant construct was called pBIND-RORγt-AF2. […] The pBIND vector contains the GAL4 DNA Binding Domain (GAL4 DBD) and the renilla luciferase gene under control of the SV40 promoter. Renilla luciferase expression serves as a control for transfection efficiency and cell viability.
The reporter assay was performed by transiently transfecting HEK293T cells with 5 μg of pBIND-RORγt LBD or pBIND-RORγt LBD-AF2 and 5 μg pGL4.31 (Promega Cat no. C935A) using Fugene 6 (Invitrogen Cat no. E2691) at a 1:6 ratio of DNA: Fugene 6 in a T-75 flask in which cells were at least 80% confluent. Twenty four hours after bulk transfection, cells were plated into 96-well plates at 50,000 cells/well in phenol-red free DMEM containing 5% Lipid Reduced FCS and Pen/Strep. Six hours after plating, cells were treated with compounds for 24 hours. Media was removed and cells were lysed with 50 μL 1x Glo Lysis Buffer (Promega). Dual Glo Luciferase Reagent (50 μL/well) was then added and firefly luciferase luminescence was read on an Envision after a ten minute incubation. Finally, Stop and Glo reagent (50 μL/well) was added and renilla luciferase luminescence was read on an Envision after a ten minute incubation. To calculate the effect of compounds on RORγt activity, the ratio of firefly to renilla luciferase was determined and plotted against compound concentration. Agonist compounds increase RORγt-driven luciferase expression, and antagonist or inverse agonist compounds decrease luciferase expression.

Sequence of human RORγt LBD (P51449 258-518): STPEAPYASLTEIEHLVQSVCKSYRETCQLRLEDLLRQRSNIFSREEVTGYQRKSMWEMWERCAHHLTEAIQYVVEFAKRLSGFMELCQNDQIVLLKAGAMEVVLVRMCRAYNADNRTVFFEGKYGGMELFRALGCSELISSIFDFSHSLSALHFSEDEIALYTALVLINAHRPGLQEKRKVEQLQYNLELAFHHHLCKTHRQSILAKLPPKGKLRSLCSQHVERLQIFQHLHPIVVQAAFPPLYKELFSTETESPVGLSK

| SMILES | inhibition at 6 µM [%] | other results |
| --- | --- | --- |
| COc1ccc(C(O)(c2ccc3nc(Cl)c(Oc4ccccc4)c(Cl)c3c2)c2cncn2C)cn1 (centres unmarked) [Example 4, (2,4-Dichloro-3-phenoxyquinolin-6-yl)(6-methoxypyridin-3-yl)(1-methyl-1H-imidazol-5-yl)methanol] | 92 |  |
| CCOc1nc2ccc(C(O)(c3ccc(C(F)(F)F)nc3)c3cncn3C)cc2c(Cl)c1Oc1ccc(F)cc1 (single isomer, unassigned) [Example 14b, (4-Chloro-2-ethoxy-3-(4-fluorophenoxy)quinolin-6-yl)(1-methyl-1H-imidazol-5-yl)(6-(trifluoromethyl)pyridin-3-yl)methanol] |  | RORγt reporter Assay, % inhibition @ 6 μM (HEK293T cells): 69% |
| COc1c(Oc2ccccc2)c(Cl)nc2ccc(C(O)(c3ccc(Cl)cc3)c3cncn3C)cc12 (centres unmarked) [Example 18, (2-Chloro-4-methoxy-3-phenoxyquinolin-6-yl)(4-chlorophenyl)(1-methyl-1H-imidazol-5-yl)methanol] | 88 |  |
| CCOc1nc2ccc(C(O)(c3ccc(OC)nc3)c3cncn3C)cc2c(Cl)c1Oc1ccccc1 (centres unmarked) [Example 10a, (4-Chloro-2-ethoxy-3-phenoxyquinolin-6-yl)(6-methoxypyridin-3-yl)(1-methyl-1H-imidazol-5-yl)methanol.TFA] | 95 |  |
| CCOc1nc2ccc(C(O)(c3ccc(C(F)(F)F)nc3)c3cncn3C)cc2c(Cl)c1Oc1ccc(F)cc1 (centres unmarked) [Example 14a, (4-Chloro-2-ethoxy-3-(4-fluorophenoxy)quinolin-6-yl)(1-methyl-1H-imidazol-5-yl)(6-(trifluoromethyl)pyridin-3-yl)methanol] | 55 |  |
| COc1nc2ccc(C(O)(c3ccc(Cl)cc3)c3cncn3C)cc2c(Cl)c1Oc1ccccc1 (single isomer, unassigned) [Example 15c, (4-Chloro-2-methoxy-3-phenoxyquinolin-6-yl)(4-chlorophenyl)(1-methyl-1H-imidazol-5-yl)methanol] |  | RORγt reporter Assay, % inhibition @ 6 μM (HEK293T cells): 82% |
| CCOc1nc2ccc(C(O)(c3ccc(C(F)(F)F)nc3)c3cncn3C)cc2c(Cl)c1Oc1ccc(F)cc1 (single isomer, unassigned) [Example 14c, (4-Chloro-2-ethoxy-3-(4-fluorophenoxy)quinolin-6-yl)(1-methyl-1H-imidazol-5-yl)(6-(trifluoromethyl)pyridin-3-yl)methanol] |  | RORγt reporter Assay, % inhibition @ 6 μM (HEK293T cells): 18% |
| COc1nc2ccc(C(O)(c3ccc(Cl)cc3)c3cncn3C)cc2c(Cl)c1Oc1ccccc1 (single isomer, unassigned) [Example 15b, (4-Chloro-2-methoxy-3-phenoxyquinolin-6-yl)(4-chlorophenyl)(1-methyl-1H-imidazol-5-yl)methanol] | 86 |  |
| COc1nc2ccc(C(O)(c3ccc(Cl)cc3)c3cncn3C)cc2c(Cl)c1Oc1ccccc1 (centres unmarked) [Example 15a, (4-Chloro-2-methoxy-3-phenoxyquinolin-6-yl)(4-chlorophenyl)(1-methyl-1H-imidazol-5-yl)methanol] | 83 |  |
| CCOc1nc2ccc(C(O)(c3ccc(C(F)(F)F)nc3)c3cncn3C)cc2c(C(F)(F)F)c1Oc1ccc(Cl)cc1 (single isomer, unassigned) [Example 25c, (3-(4-Chlorophenoxy)-2-ethoxy-4-(trifluoromethyl)quinolin-6-yl)(1-methyl-1H-imidazol-5-yl)(6-(trifluoromethyl)pyridin-3-yl)methanol] |  | RORγt reporter Assay, % inhibition @ 6 μM (HEK293T cells): 67% |
| CCN(CC)c1nc2ccc(C(O)(c3ccc(C(F)(F)F)nc3)c3cncn3C)cc2c(Cl)c1Oc1ccc(F)cc1 (centres unmarked) [Example 9a] | 97 |  |
| CCN(CC)c1nc2ccc(C(O)(c3ccc(Cl)cc3)c3cncn3C)cc2c(Cl)c1Oc1ccccc1 (single isomer, unassigned) [Example 3b, (4-Chloro-2-(diethylamino)-3-phenoxyquinolin-6-yl)(4-chlorophenyl)(1-methyl-1H-imidazol-5-yl)methanol] |  | RORγt reporter Assay, % inhibition @ 6 μM (HEK293T cells): 77% |

More lines, main results first:

| inhibition at 6 µM [%] | SMILES | other results |
| --- | --- | --- |
| 95 | COCCN(C)c1nc2ccc(C(O)(c3ccc(C(F)(F)F)nc3)c3cncn3C)cc2c(Cl)c1Oc1ccccc1 (centres unmarked) [Example 34, (4-Chloro-2-((2-methoxyethyl)(methyl)amino)-3-phenxoyquinolin-6-yl)(1-methyl-1H-imidazol-5-yl)(6-(trifluoromethyl)pyridin-3-yl)methanol.TFA] |  |
| 62 | CCN(CC)c1nc2ccc(C(O)(c3ccc(Cl)cc3)c3cncn3C)cc2c(Cl)c1N(C(=O)OC(C)(C)C)c1ccccc1 (centres unmarked) [Example 44, tert-Butyl (4-chloro-6-((4-chlorophenyl)(hydroxyl)(1-methyl-1H-imidazol-5-yl)methyl)-2-(diethylamino)quinolin-3-yl)(phenyl)carbamate.TFA] |  |
| 55 | Cn1cncc1C(O)(c1ccc(C(F)(F)F)nc1)c1ccc2nc(C#N)c(Oc3ccc(Cl)cc3)c(C(F)(F)F)c2c1 (centres unmarked) [Example 24, 3-(4-Chlorophenoxy)-6-(hydroxy(1-methyl-1H-imidazol-5-yl)(6-(trifluoromethyl)pyridin-3-yl)methyl)-4-(trifluoromethyl)quinoline-2-carbonitrile] |  |
| 55 | Cn1cncc1C(O)(c1ccc(C(F)(F)F)nc1)c1ccc2nc(C#N)c(Oc3ccccc3)c(C#N)c2c1 (centres unmarked) [Example 22a, 6-(Hydroxy(1-methyl-1H-imidazol-5-yl)(6-(trifluoromethyl)pyridin-3-yl)methyl)-3-phenoxyquinoline-2,4-dicarbonitrile] | IC50 (HEK293T cells, 24 hours compound treatment): ~6 µM |
| 80 | Cn1cncc1C(O)(c1ccc(Cl)cc1)c1ccc2nc(C#N)c(Oc3ccc(F)cc3)c(Cl)c2c1 (centres unmarked) [Example 23, 4-Chloro-6-((4-chlorophenyl)(hydroxy)(1-methyl-1H-imidazol-5-yl)methyl)-3-(4-fluorophenoxy)quinoline-2-carbonitrile.TFA] |  |
| 93 | CCN(CC)c1nc2ccc(C(O)(c3ccc(Cl)cc3)c3cncn3C)cc2c(C(F)(F)F)c1Oc1ccccc1 (centres unmarked) [Example 29, (4-Chlorophenyl)(2-(diethylamino)-3-phenoxy-4-(trifluoromethyl)quinolin-6-yl)(1-methyl-1H-imidazol-5-yl)methanol.TFA] |  |
| 102 | Cn1cncc1C(O)(c1ccc(Cl)cc1)c1ccc2nc(N3CCC3)c(Oc3ccc(C#N)cc3)c(Cl)c2c1 (centres unmarked) [Example 32a, 4-((2-(Azetidin-1-yl)-4-chloro-6-((4-chlorophenyl)(hydroxyl)(1-methyl-1H-imidazol-5-yl)methyl)quinolin-3-yl)oxy)benzonitrile] |  |
| 75 | CCOc1nc2ccc(C(O)(c3ccc(C(F)(F)F)nc3)c3cncn3C)cc2c(C(F)(F)F)c1Oc1ccc(Cl)cc1 (centres unmarked) [Example 25a, (3-(4-Chlorophenoxy)-2-ethoxy-4-(trifluoromethyl)quinolin-6-yl)(1-methyl-1H-imidazol-5-yl)(6-(trifluoromethyl)pyridin-3-yl)methanol] |  |
| 39 | Cn1cncc1C(O)(c1ccc(C(F)(F)F)nc1)c1ccc2nc(Cl)c(Oc3ccc(Cl)cc3)c(C(F)(F)F)c2c1 (centres unmarked) [Example 46, (2-Chloro-3-(4-chlorophenoxy)-4-(trifluoromethyl)quinolin-6-yl)(1-methyl-1H-imidazol-5-yl)(6-(trifluoromethyl)pyridin-3-yl)methanol] |  |
| 80 | Cn1cncc1C(O)(c1ccc(C(F)(F)F)nc1)c1ccc2nc(C#N)c(Oc3ccccc3)c(Cl)c2c1 (centres unmarked) [Example 21, 4-Chloro-6-(hydroxy(1-methyl-1H-imidazol-5-yl)(6-(trifluoromethyl)pyridin-3-yl)methyl)-3-phenoxyquinoline-2-carbonitrile.TFA] |  |
